Assays:
[1] = Exploratory water solubility in 10 mM Tris-HCl buffer, pH 7.4; assay type: physicochemical; conditions: aqueous buffer (10 mM Tris-HCl), 20 °C
Description: The exploratory water solubility of the compounds is determined at room temperature (20 °C) in 0.5 mL buffer solution (10 mM Tris-HCl, pH 7.4) in the microcentrifuge tubes (Eppendorf, 2.0 mL safe-lock caps). The solid compounds were added stepwise to the buffer solution. More substance is added once all the suspended material is dissolved until an equilibrium between undissolved and dissolved substance is reached. The suspension was mixed using a shaker (Heidolph Reax 2000) and treated 5 min in an ultrasound bath (Bandelin, Sonorex Super RK255H). The Gadolinium concentration of the test substance in the clear solution is measured by ICP-MS.

[2] = Partition coefficient (log P butanol/buffer); assay type: physicochemical; conditions: 50 mM Tris-HCl, pH 7.4, 10 μM, room temperature
Description: The partition coefficient P (log P=log(Cbutanol/Cbuffer)) was determined in buffered aqueous solution (10 μM of compound in 0.5 mL 50 mM Tris-HCl saturated with Butanol, pH 7.4) and 1-butanol 1+1 and the mixture was shaken for 2 h at room temperature (n=3). The Gd-concentrations in each phase. CObutano, and Cbuffer were measured by ICP-MS (The Chemistry of Contrast Agents in Medical Magnetic Resonance Imaging” 2nd Ed. Merbach A S, Helm L, Toth E, eds. Hoboken, NJ: Wiley 2013).

[3] = 1.5 T, 37 °C, from Rohrer et al., cited from earlier work; for r1 plasma: bovine plasma instead of human plasma
[4] = of the administered dose; cited from earlier work
plasma proteins = conditions: cited from earlier work
[5] = test system: organic anion-transporting polypeptides (OATP1B1, OATP1B3); conditions: via OATP1B1, OATP1B3; cited from earlier work
[6] = test system: multidrug resistance-associated protein 2 (MRP2); conditions: via MRP2 (cMOAT); cited from earlier work
dentate nucleus = conditions: after repeated administration; cited from earlier work
focal liver lesions = conditions: patients with healthy liver or oncologic/cirrhotic liver patients; cited from earlier work
[7] = Complex stability (transmetallation) with Zn2+ in phosphate buffer; assay type: physicochemical; conditions: over 72 hours, 2.5 mM Zn^2+, 26 mM phosphate buffer, 37 °C
Description: The used method is described elsewhere (Laurent S et al., Stability of MRI paramagnetic contrast media: a proton relaxometric protocol for transmetallation assessment. Invest Radiol. 2001 February; 36(2):115-22). […] If test compounds are instable under these conditions, transmetallation during this test would lead to the formation of the Zn^2+ complex of the test item, while Gd^3+ is released and precipitated as highly insoluble GdPO4.
After 3d of incubation T1 relaxation time was observed.

| Solubility [1] [mM] | SMILES | Log P [2] | r1 plasma [3] [L/mmol/s] | r1 water [3] [L/mmol/s] | secretion/excretion into the bile [4] | protein binding (plasma proteins) | uptake by hepatocytes [5] | excretion into the bile canaliculi [6] | signal intensity in the dentate nucleus (dentate nucleus) | detection and identification of focal liver lesions by liver MRI (focal liver lesions) | Transmetallation stability (in words) [7] |
| --- | --- | --- | --- | --- | --- | --- | --- | --- | --- | --- | --- |
| >250 | CCOc1ccc(CC(CN(CCN(CC(=O)[O-])CC(=O)[O-])CC(=O)[O-])N(CC(=O)[O-])CC(=O)[O-])cc1.[Gd+3].[Na+].[Na+] (centres unmarked) [RC1, gadoxetate disodium] | −2.12 | 6.9 | 4.7 | up to 50% | approximately 10% | mainly taken up by hepatocytes via organic anion-transporting polypeptides (OATP1B1, OATP1B3) | primarily excreted into the bile canaliculi via the multidrug resistance-associated protein 2 | increased signal intensity in the dentate nucleus | able to detect and identify focal liver lesions with high specificity and sensitivity |  |
|  | O=C([O-])CN1CCN(CC(=O)[O-])CCN([C@H](CO)[C@H](O)CO)CCN(CC(=O)[O-])CC1.[Gd+3] (racemic) [RC3, gadobutrol] |  | 5.2 | 3.3 |  |  |  |  |  |  | stable |
|  | O=C([O-])CN(CCN(CC(=O)[O-])CC(=O)[O-])CCN(CC(=O)[O-])C(COCc1ccccc1)C(=O)[O-].[Gd+3].[H+].[H+] (centres unmarked) [RC2, gadobenic acid] | −2.07 | 6.3 | 4.0 |  | approximately 10% |  |  |  |  |  |

Reference: patent publication US20260365677A1, “NEW CONTRAST AGENTS FOR USE IN DIAGNOSTIC IMAGING” (Bayer Aktiengesellschaft, priority 2022, published 2026)
